Measured values reported in publication PMC9646747, “An allosteric modulator activates BK channels by perturbing coupling between Ca^2+ binding and pore opening” (Nature Communications, 2022).

Target: T1, BK channel (Slo1, mslo1 mbr5 splice variant) (Mus musculus, UniProt Q08460)
T1 construct: gene Kcnma1; mbr5 splice variant of mslo1
Experiment: inside-out patch-clamp of channels expressed in Xenopus oocytes (GV shift dose response; also outward-current block, IC50 […]), supported by mutagenesis
Type: cell-based

**Q.** Which EC50 does the source give for `COc1cc(NC(=O)[C@@H](N)CCCNC(=N)N)cc2ccccc12` [BC5] here?
**A.** Its EC50 is 2500 ± 300 nM.
